Measured values reported in paper PMC5652073 (ACS chemical biology, 2017).
Entries after “also recorded” stand apart in the source; their conditions may differ. Where two headings read alike, the source gives them in different places. Blank lines part the entries; values can stand above or below the compound they belong to.

Assays:
MEK7 = biological target: T1, MEK7 (Homo sapiens, UniProt O14733); assay: ADP-Glo biochemical kinase assay, MEK7; conditions: functional profiling assay
T1 sequence (O14733 1-419): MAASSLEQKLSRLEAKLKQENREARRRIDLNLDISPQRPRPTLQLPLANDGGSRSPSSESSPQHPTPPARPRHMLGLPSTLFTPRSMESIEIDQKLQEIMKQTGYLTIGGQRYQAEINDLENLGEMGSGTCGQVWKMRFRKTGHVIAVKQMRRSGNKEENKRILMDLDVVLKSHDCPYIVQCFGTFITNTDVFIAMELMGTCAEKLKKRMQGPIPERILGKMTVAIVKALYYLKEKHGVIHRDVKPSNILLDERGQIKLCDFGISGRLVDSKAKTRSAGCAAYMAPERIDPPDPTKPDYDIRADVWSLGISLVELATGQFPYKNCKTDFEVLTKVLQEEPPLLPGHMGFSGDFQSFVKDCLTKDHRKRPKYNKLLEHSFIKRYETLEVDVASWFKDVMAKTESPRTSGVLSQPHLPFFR

MEK6 = biological target: T2, MEK6 (Homo sapiens, UniProt P52564); assay: ADP-Glo biochemical kinase assay, MEK6
T2 sequence (P52564 1-334): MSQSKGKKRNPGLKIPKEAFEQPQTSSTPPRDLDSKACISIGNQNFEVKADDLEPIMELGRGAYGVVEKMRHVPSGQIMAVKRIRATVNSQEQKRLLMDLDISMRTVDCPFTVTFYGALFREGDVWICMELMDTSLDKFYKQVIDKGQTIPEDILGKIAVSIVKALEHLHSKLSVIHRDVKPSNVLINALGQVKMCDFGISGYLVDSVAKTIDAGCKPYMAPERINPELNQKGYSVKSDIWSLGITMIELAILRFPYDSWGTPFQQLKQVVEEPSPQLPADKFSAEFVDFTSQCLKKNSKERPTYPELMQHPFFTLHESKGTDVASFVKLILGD

MEK4 = biological target: T3, MEK4 (Homo sapiens, UniProt P45985); assay: ADP-Glo biochemical kinase assay, MEK4; conditions: read-out: IC50 against MEK4, ATP below Km
T3 sequence (P45985 1-399): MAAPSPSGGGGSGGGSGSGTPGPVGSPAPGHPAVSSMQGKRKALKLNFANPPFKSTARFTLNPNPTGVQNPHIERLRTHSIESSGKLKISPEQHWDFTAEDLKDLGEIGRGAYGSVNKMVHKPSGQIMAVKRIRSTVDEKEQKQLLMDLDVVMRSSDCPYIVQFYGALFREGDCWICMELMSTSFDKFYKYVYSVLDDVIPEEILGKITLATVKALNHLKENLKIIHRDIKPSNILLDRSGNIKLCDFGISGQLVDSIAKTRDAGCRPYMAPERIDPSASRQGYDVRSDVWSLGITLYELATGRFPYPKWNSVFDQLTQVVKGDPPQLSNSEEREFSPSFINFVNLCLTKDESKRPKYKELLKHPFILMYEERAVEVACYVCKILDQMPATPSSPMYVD

MEK5 = MEK5 (Homo sapiens, UniProt Q13163); assay: ADP-Glo biochemical kinase assay, MEK5; conditions: functional profiling assay
VEGFR = conditions: read-out: inhibition of VEGFR, cell-free assay; cited from earlier work
PDGFR = conditions: read-out: inhibition of PDGFR, cell-free assay; cited from earlier work
c-KIT = conditions: read-out: inhibition of c-KIT, cell-free assay; cited from earlier work

Chain of MEK5 (Q13163 whole entry): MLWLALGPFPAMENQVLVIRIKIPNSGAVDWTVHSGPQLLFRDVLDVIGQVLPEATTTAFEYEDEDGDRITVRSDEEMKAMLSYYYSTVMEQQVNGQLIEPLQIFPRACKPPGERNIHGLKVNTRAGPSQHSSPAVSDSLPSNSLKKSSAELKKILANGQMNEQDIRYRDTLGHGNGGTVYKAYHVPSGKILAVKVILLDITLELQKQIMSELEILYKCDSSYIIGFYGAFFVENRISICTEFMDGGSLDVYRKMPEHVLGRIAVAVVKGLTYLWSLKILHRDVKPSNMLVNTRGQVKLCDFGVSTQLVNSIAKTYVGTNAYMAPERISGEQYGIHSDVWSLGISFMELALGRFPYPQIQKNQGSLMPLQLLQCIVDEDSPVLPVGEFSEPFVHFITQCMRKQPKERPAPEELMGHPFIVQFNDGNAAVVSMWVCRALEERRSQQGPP

inhibition of MEK5 (in words) (MEK5): strongly inhibited
Compound: CCN1CCN(Cc2ccc(NC(=O)Nc3ccc(Oc4cc(NC)ncn4)cc3)cc2C(F)(F)F)CC1 [AST-487]
inhibition of MEK7 (in words) (MEK7): inhibition; also recorded: strongly inhibited

IC50 (MEK6): 60 µM
Compound: CCCS(=O)(=O)Nc1ccc(F)c(C(=O)c2c[nH]c3ncc(Cl)cc23)c1F [PLX-4720]

More lines, now with the values behind:

Compound: CN(C)C[C@@H]1CCn2cc(c3ccccc32)C2=C(C(=O)NC2=O)c2cn(c3ccccc23)CCO1 [LY-333531]
inhibition of MEK7 (in words) (MEK7): inhibition

Compound: O=C(c1c(F)cccc1F)c1c[nH]c2ncc(Cl)cc12 [compound 3a]
IC50 (MEK6; read-out: IC50 against MEK6, ADP-Glo, ATP below Km): 75.1 µM
IC50 (MEK4): 6.9 µM

Compound: 5-[[4-[(2, 3-Dimethyl-2 H-indazol-6-yl) methylamino]-2-pyrimidinyl] amino]-2-methyl-benzene-sulfonamide [Pazopanib]
IC50 (VEGFR): 0.01 to 0.047 µM
IC50 (PDGFR): 0.084 µM
IC50 (c-KIT): 0.14 µM
